The values below are quoted from earlier work in patent US20050192272A1, “Substituted benzodiazepines as inhibitors of the chemokine receptor CXCR4” (priority 2003, published 2005).

The term IC50 denotes the concentration needed to halve the response being measured.

For data set [1] the following is noted: rats.
The next data set addresses CXCR4 (Homo sapiens, UniProt P61073). The conditions noted are these: read-out: IC50 in inhibiting the binding of CXCL12 to CXCR4.
For data set [2] the following is noted: Phase I/II clinical trials.

Chain of CXCR4 (P61073 whole entry): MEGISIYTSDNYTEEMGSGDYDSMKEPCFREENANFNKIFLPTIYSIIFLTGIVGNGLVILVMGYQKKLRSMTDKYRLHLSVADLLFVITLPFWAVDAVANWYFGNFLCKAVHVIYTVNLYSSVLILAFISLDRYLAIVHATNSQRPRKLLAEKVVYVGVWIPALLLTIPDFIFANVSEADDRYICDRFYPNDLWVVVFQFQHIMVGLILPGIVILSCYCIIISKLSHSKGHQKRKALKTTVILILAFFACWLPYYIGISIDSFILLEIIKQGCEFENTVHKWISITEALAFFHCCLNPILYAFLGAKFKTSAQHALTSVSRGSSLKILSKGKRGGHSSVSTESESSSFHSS

Consider “[Tyr^5,12, Lys^7]-polyphemusin II [T-22]”, for which the “inhibition of multiplication of X4-strains of HIV” value in the data set with X4-strains of HIV (through specific binding to the CXCR4 receptor) is given as “strongly inhibit”.

In the case of `c1cc(CN2CCCNCCNCCCNCC2)ccc1CN1CCCNCCNCCCNCC1` [ALX40-4C], the acute cardiac toxicity entry (month-long clinical study, 1995) is listed as “did not exhibit any acute cardiac toxicity”. The adverse side effects result (one-month Phase I/II clinical study) was “no adverse side effects”.

`C[C@H](NC(=O)[C@H](CCCNC(=N)N)NC(=O)c1ccc(CNCc2ccccn2)cc1)c1cccc2ccccc12` [KRH-1636]: the “absorption from the duodenum” value in data set [1] is on record as “absorbed from the duodenum in rats”. c(Nal-Gly-tyr-Arg-Arg) [FC131]: the IC50 on CXCR4 was 4 nM. In addition, the “level of anti-HIV activity and antagonism among CXCR4 antagonists reported to date” value with X4-strains of HIV was “matched”.

Consider `c1cc(CN2CCCNCCNCCCNCC2)ccc1CN1CCCNCCNCCCNCC1` [AMD3100], for which, in data set [2], the cardiac toxicity result was “exhibited certain cardiac toxicity properties” and the effectiveness result is recorded as “limited effectiveness”.
